Test [1] is described as follows: Inhibition of mTORC2 in human PC3 cells assessed as reduction in phosphorylated AKT S473 level after 90 mins by immunofluorescence assay. It counts as cell-based. As to conditions: PC-3, 1.5 h.
The target of the next test is mTORC1 (Homo sapiens, UniProt P42345). The test is described as follows: Inhibition of mTORC1 in human PC3 cells assessed as reduction in phosphorylated 4E-BP1Thr37/46 level after 90 mins by immunofluorescence assay. It counts as cell-based, PC-3.

As usually defined, the IC50 is the point on the concentration scale where inhibition reaches its midpoint.

For `Cc1n[nH]c2c1c([C@@H]1C[C@H]3CC[C@@H](C1)N3C(=O)c1nnc[nH]1)nc1c(-c3ccc(-c4ccccc4)nc3)cnn12`, the half-maximal inhibitory concentration (IC50) in test [1] was determined as 1 nM; at mTORC1, 100 nM.
Turning to `O=C(c1nnc[nH]1)N1[C@@H]2CC[C@H]1C[C@H](c1nc3c(-c4ccc(-c5ncc[nH]5)nc4)cnn3c3[nH]ccc13)C2`, the half-maximal inhibitory concentration (IC50) (in test [1]; at mTORC1) was 1 nM in each case.

These data come from ChEMBL document CHEMBL2331287, “Inhibition of mTOR Kinase and Cancer Treatment” (ACS Med Chem Lett, 2013).
